According to patent US11866430B2, “Naphthyridinone compounds useful as T cell activators” (priority 2018, dated 2024):
Like-named read-outs stand apart in the source and are kept apart here.

Legend:
naïve human CD8 T cells [1] = assay: CellTiter-Glo CD8 T Cell Proliferation Assay; assay type: cell-based; details: Homo sapiens, T-cell
Procedure: Frozen naïve human CD8 T cells were thawed in RPMI+10% FBS, incubated for 2 h in 37° C., and counted. The 384-well tissue culture plate was coated overnight at 4° C. with 20 μl anti-human CD3 at 0.1 μg/mL in plain RPMI, which was removed off the plate before 20 k/40 μl CD8 T cells with 0.5 μg/mL soluble anti-human CD28 were added to each well. The compounds were echoed to the cell plate immediately after the cells were plated. After 72 h incubation at 37° C. incubator, 10 μl CellTiter-glo reagent (Promega catalog number G7570) was added to each well. The plate was vigorously shaken for 5 mins, incubated at room temperature for another 15 mins and read on Envision for CD8 T cell proliferation. In analysis, 0.1 μg/mL anti-CD3 and 0.5 μg/mL anti-CD28 stimulated CD8 T cell signal was background.

human DGKα [2] = target: T1, human DGKα (Homo sapiens (Human), UniProt P23743); assay: DGKα LIPGLO assay (extruded liposome substrate); assay type: biochemical
T1 sequence (P23743 other isoform, or with tags, fused parts or gaps): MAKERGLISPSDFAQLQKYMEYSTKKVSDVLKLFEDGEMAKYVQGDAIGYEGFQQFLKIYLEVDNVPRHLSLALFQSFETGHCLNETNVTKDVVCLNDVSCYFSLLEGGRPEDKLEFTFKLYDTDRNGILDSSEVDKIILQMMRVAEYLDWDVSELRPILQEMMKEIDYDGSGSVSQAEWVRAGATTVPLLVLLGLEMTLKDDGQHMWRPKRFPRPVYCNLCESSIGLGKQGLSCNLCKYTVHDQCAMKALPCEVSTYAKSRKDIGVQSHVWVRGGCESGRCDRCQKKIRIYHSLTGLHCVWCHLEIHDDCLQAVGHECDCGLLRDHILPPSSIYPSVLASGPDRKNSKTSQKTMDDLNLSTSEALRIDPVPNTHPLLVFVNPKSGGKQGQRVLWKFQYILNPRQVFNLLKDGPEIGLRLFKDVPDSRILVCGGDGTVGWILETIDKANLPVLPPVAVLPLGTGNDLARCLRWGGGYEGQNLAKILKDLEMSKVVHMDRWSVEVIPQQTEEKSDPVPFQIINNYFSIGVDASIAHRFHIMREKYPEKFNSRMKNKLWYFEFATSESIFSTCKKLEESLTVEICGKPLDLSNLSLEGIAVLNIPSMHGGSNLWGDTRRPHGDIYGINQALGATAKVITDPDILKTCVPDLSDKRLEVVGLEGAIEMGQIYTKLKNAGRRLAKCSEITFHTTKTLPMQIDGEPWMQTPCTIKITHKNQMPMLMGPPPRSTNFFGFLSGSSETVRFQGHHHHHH
Summary of the method: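 Human full-length DGKα, His-tagged and produced in Sf9 cells, assayed at 20 nM (4× stock) on extruded liposomes of PS, 0.25 mM DAG and 2.75 mM PC, preincubated 10 min. Reaction started with 300 μM ATP (stock) and ran 1 h in MOPS pH 7.5/MgCl2/CaCl2/DTT buffer.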

human DGKζ [3] = target: T2, human DGKζ (Homo sapiens (Human), UniProt Q13574); assay: DGKζ LIPGLO assay (extruded liposome substrate); assay type: biochemical; details: extruded liposome substrate; read-out: DGKζ LIPGLO IC50
T2 sequence (Q13574 other isoform, or with tags, fused parts or gaps): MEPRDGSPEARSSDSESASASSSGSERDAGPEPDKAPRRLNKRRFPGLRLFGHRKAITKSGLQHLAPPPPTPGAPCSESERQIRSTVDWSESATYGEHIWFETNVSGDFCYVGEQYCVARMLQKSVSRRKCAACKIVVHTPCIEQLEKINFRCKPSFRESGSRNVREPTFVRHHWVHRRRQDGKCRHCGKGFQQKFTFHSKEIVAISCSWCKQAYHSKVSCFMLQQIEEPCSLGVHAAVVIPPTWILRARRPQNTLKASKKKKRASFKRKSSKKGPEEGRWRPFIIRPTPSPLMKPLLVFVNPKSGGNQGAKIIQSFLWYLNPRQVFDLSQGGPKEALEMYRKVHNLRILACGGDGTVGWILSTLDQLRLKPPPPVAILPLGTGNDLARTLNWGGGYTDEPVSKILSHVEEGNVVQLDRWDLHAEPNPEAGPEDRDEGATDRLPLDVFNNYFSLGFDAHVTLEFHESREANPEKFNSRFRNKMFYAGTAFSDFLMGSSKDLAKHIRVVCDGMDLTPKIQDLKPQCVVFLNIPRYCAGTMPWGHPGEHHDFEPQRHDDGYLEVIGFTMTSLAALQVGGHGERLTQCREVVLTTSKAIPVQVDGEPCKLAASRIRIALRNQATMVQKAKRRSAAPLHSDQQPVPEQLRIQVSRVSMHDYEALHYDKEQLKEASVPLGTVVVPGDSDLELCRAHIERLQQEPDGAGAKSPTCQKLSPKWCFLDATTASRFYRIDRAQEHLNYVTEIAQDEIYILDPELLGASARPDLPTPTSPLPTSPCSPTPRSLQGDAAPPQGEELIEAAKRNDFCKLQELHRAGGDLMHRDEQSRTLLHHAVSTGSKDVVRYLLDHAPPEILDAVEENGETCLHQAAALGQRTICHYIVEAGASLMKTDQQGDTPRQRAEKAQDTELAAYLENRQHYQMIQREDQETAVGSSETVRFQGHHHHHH
Summary of the method: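 Sf9-derived DGKζ was premixed 10 min with PC/DAG/PS liposomes (100 nm extruded) in MOPS pH 7.5 buffer containing NaCl, MgCl2, CaCl2 and DTT.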

[4] = tested on: Jurkat AP1-luciferase Reporter; assay: DGK AP1-Reporter Assay; assay type: cell-based
Summary of the method: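 Jurkat cells carrying a lentiviral AP1-luciferase reporter received 30 nl compound per well for 20 min at 37 °C and 5% CO2. They were then stimulated for 6 h with anti-CD3 solution at 0.4 μg/mL; reference wells received 4 μg/mL and unstimulated wells medium only. Readout was Steady-Glo luciferase luminescence (RLU).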

human DGKα [5] = target: T1, human DGKα; assay: biochemical
Summary of the method: (§1)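 Full-length human DGKζ (and DGKα), C-terminal His-tagged, Sf9-expressed, with phosphatidylserine/DAG micelles in 50 mM octyl glucoside; buffer 50 mM MOPS pH 7.5, 100 mM NaCl, 10 mM MgCl2, 1 μM CaCl2, 1 mM DTT.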

human DGKζ [6] = target: T2, human DGKζ; assay: DGKζ assay (detergent/lipid micelle substrate); assay type: biochemical
Summary of the method: as §1

[7] = tested on: OT-1 antigen-specific CD8+ T cells with MC38 tumor cells; assay: Murine Cytotoxic T Lymphocyte Assay (IFN-γ); assay type: cell-based, mouse
Description: An antigen-specific cytolytic T-cell (CTL) assay was developed to evaluate functionally the ability of DGKα and DGKζ inhibitors to enhance effector T cell mediated tumor cell killing activity. CD8+ T-cells isolated from the OT-1 transgenic mouse recognize antigen presenting cells, MC38, that present the ovalbumin derived peptide […]. Recognition of the cognate antigen initiates the cytolytic activity of the OT-1 antigen-specific CD8+ T cells.
Functional CTL cells were generated as follows: OT-1 splenocytes from 8-12 week old mice were isolated and expanded in the presence of the […] peptide at 1 μg/mL and mIL2 at 10 U/mL. After three days, fresh media with mIL2 U/mL was added. On day 5 of the expansion, the CD8+ T cells were isolated and ready for use. Activated CTL cells may be stored frozen for 6 months. […] The cells were washed (3×) with fresh media to remove excess peptide. Finally, CTL cells that were pretreated with DGK inhibitors for 1 hour in a 96-well U bottom plate were combined with the antigen loaded MC38 tumor cells at a 1:10 ratio. The cells were then spun at 700 rpm for 5 min and placed in an incubator overnight at 37° C. After 24 hours, the supernatant was collected for analysis of IFN-γ cytokine levels by AlphaLisa purchased from Perkin Elmer.

[8] = tested on: pre-activated CD4 T cells and Raji cells; assay: Raji CD4 T Cell IL2 Assay; assay type: cell-based; details: Homo sapiens, Raji
naïve human CD8 T cells [9] = assay: cells; details: Homo sapiens, T-cell, read-out: HuCD8 INFG Normalized EC50, anti-CD3 plus anti-CD28 as baseline; 3 μM Example 40 co-stimulation as 100% activation
Procedure: Frozen naïve human CD8 T cells were thawed in ATM-V media, incubated for 2 h in 37° C., and counted. The 384-well tissue culture plate was coated overnight at 4° C. with 20 μl anti-human CD3 at 0.05 μg/mL in PBS, which was removed off the plate before 40,000 cells per 40 microliters CD8 T cells with 0.1 μg/mL soluble anti-human CD28 were added to each well. The compounds were transferred using an Echo liquid handler to the cell plate immediately after the cells were plated. After 20 h incubation at 37° C. incubator, 3 microliters per well supernatants transferred into a new 384-well white assay plate for cytokine measurement.
Interferon-γ (IFN-γ) was quantitated using the AlphaLISA kit (Cat #AL217) as described by the manufacturer manual (Perkin Elmer). The counts from each well were converted to IFN-γ concentration […].

[10] = CellTiter-Glo CD8 T cell proliferation, normalized, read-out: CD8 GLO normalized EC50
[11] = Homo sapiens, Jurkat, read-out: DGKAP1 Lucif Reporter IC50, Table 4
[12] = detergent/lipid micelle substrate, read-out: DGKα IC50
[13] = Homo sapiens, Jurkat, read-out: API-Luciferase Reporter IC50, Table 3
[14] = read-out: API-Luciferase Reporter IC50, Table 3
[15] = read-out: msCTL INF-γ IC50, murine CTL IFN-γ (table title reads INF-γ Whole Blood Normalized Agonist EC50)
[16] = detergent/lipid micelle substrate, read-out: DGKζ IC50
[17] = Mus musculus, MC-38, read-out: msCTL INF-γ IC50, murine CTL IFN-γ (table title reads INF-γ Whole Blood Normalized Agonist EC50)

Q: With COc1cc(F)ccc1C(c1ccc(F)cc1)N1CCN(c2c(C#N)c(=O)n(C)c3ccc(C#N)nc23)CC1 (racemic) [Example 405, 8-{4-[(4-fluoro-2-methoxyphenyl)(4-fluorophenyl)methyl]piperazin-1-yl}-5-methy-6-oxo-5,6-dihydro-L5-naphthyridine-2,7-dicarbonitrile] as the compound, how does the EC50 (naïve human CD8 T cells [1]; [10]) read?
A: 20 nM

Q: And the IC50 (human DGKα [2])?
A: 560 nM

Q: What about the IC50 (human DGKζ [3]) of the same compound?
A: 860 nM

Q: With CC(c1ccc(F)cc1)N1CCN(c2c(C#N)c(=O)n(C)c3ccc(Cl)nc23)CC1 (stereo not shown) [Example 387A, 6-chloro-4-{4-[1-(4-fluorophenyl)ethyl]piperazin-1-yl}-1-methyl-2-oxo-1,2-dihydro-1,5-naphthyridine-3-carbonitrile] as the compound, how does the EC50 (naïve human CD8 T cells [1]; [10]) read?
A: 10000 nM

Q: And the IC50 [4, 11]?
A: 10000 nM

Q: With CC(c1ccc(F)cc1)N1CCN(c2c(C#N)c(=O)n(CC3CC3)c3ccc(Br)nc23)CC1 (racemic) [Example 162, 6-bromo-1-(cyclopropylmethyl)-4-(4-(1-(4-fluorophenyl)ethyl)piperazin-1-yl)-2-oxo-1,2-dihydro-1,5-naphthyridine-3-carbonitrile] as the compound, how does the IC50 (human DGKα [5]; [12]) read?
A: 160000 nM

Q: What about the EC50 (naïve human CD8 T cells [1]; [10]) of the same compound?
A: 10000 nM

Q: And the IC50 [4, 13]?
A: 4810 nM

Q: What about the IC50 [4, 11] of the same compound?
A: 10000 nM

Q: What about the IC50 (human DGKζ [6]; DGKζ IC50, detergent/lipid micelle substrate) of the same compound?
A: > 240000 nM

Q: For C#CCn1c(=O)c([N+](=O)[O-])c(N2CCN(C(c3ccc(F)cc3)c3ccccc3O)CC2)c2nc(C#N)ccc21 (single isomer, unassigned) [Example 134, 8-(4-((4-fluorophenyl)(2-hydroxyphenyl)methyl)piperazin-1-yl)-7-nitro-6-oxo-5-(prop-2-yn-1-yl)-5,6-dihydro-1,5-naphthyridine-2-carbonitrile], which IC50 (human DGKα [5]; [12]) is on record?
A: 31000 nM

Q: And the IC50 [4, 14]?
A: 600 nM

Q: What about the IC50 [7, 15] of the same compound?
A: 1140 nM

Q: And the IC50 (human DGKζ [6]; [16])?
A: 4200 nM

Q: What does the source list for COc1ccccc1C(c1ccc(F)cc1)N1CCN(c2c(C#N)c(=O)n(CC3CC3)c3ccc(Br)nc23)CC1 (racemic) [Example 158, 6-bromo-1-(cyclopropylmethyl)-4-(4-((4-fluorophenyl)(2-methoxyphenyl)methyl)piperazin-1-yl)-2-oxo-1,2-dihydro-1,5-naphthyridine-3-carbonitrile]?
A: IC50 (human DGKα [5]; [12]): > 240000 nM; EC50 (naïve human CD8 T cells [1]; [10]): 920 nM; IC50 [4, 13]: 4590 nM; IC50 [4, 11]: 10000 nM; IC50 (human DGKζ [6]; [16]): > 240000 nM

Q: Which IC50 (human DGKα [5]; [12]) does the source give for Cc1cccc(CN2CCN(c3c(C#N)c(=O)n(C)c4ccc(Cl)nc34)CC2)c1 [Example 385, 6-chloro-1-methyl-1-{4-4[(3-methylphenyl)methyl]piperazin-1-yl}-2-oxo-1,2-dihydro-1,5-naphthyridine-3-carbonitrile] here?
A: 350 nM

Q: What about the IC50 [4, 13] of the same compound?
A: 60 nM

Q: And the IC50 [7, 17]?
A: 4090 nM

Q: And the IC50 (human DGKζ [6]; [16])?
A: 150000 nM

Q: C#CCn1c(=O)c([N+](=O)[O-])c(N2CCN(C(c3ccc(F)cc3)c3ccccc3OC)CC2)c2nc(C#N)ccc21 (racemic) [Example 129, 8-(4-((4-fluorophenyl)(2-methoxyphenyl)methyl)piperazin-1-yl)-7-nitro-6-oxo-5-(prop-2-yn-1-yl)-5,6-dihydro-1,5-naphthyridine-2-carbonitrile] was tested. Which IC50 (human DGKα [5]; [12]) did it give?
A: 4200 nM

Q: What about the EC50 (naïve human CD8 T cells [1]; [10]) of the same compound?
A: 60 nM

Q: And the IC50 [4, 11]?
A: 870 nM

Q: What about the IC50 (human DGKζ [6]; [16]) of the same compound?
A: 180 nM

Q: Cn1c(=O)c(C#N)c(N2CCN(Cc3ccc(O)cc3)CC2)c2nc(Cl)ccc21 [Example 362, 6-chloro-4-{4-[(4-hydroxyphenyl)methyl]piperazin-1-yl}-1-methyl-2-oxo-1,2-dihydro-1,5-naphthyridine-3-carbonitrile] was tested. Which IC50 (human DGKα [5]; [12]) did it give?
A: 69 nM

Q: And the IC50 [8]?
A: > 100000 nM

Q: And the IC50 [4, 13]?
A: 8370 nM

Q: And the IC50 [7, 17]?
A: 10000 nM

Q: What about the IC50 (human DGKζ [6]; [16]) of the same compound?
A: > 240000 nM

Q: Which EC50 (naïve human CD8 T cells [9]) does the source give for COc1cc(F)ccc1C(c1ccc(F)cc1)N1CCN(c2cc(=O)n(C)c3ccc(C#N)nc23)CC1 (stereo not shown) [Example 392, 8-{4-[(4-fluoro-2-methoxyphenyl)(4-fluorophenyl)methyl]piperazin-1-yl}-5-methyl-6-oxo-5,6-dihydro-1,5-naphthyridine-2-carbonitrile] here?
A: 230 nM

Q: And the IC50 (human DGKα [2])?
A: > 240000 nM

Q: And the IC50 (human DGKζ [3])?
A: 2300 nM

Q: And the IC50 [7, 17]?
A: 1850 nM

Q: What does the source list for C#CCn1c(=O)c([N+](=O)[O-])c(N2CCN(C(c3ccc(F)cc3)c3ccccc3O)CC2)c2nc(C#N)ccc21 (single isomer, unassigned) [Example 133, 8-(4-((4-fluorophenyl)(2-hydroxyphenyl)methyl)piperazin-1-yl)-7-nitro-6-oxo-5-(prop-2-yn-1-yl)-5,6-dihydro-1,5-naphthyridine-2-carbonitrile]?
A: IC50 (human DGKα [5]; DGKα IC50, detergent/lipid micelle substrate): 3300 nM; IC50 [4, 14]: 280 nM; IC50 [7, 15]: 60 nM; IC50 (human DGKζ [6]; [16]): 140 nM

Q: Cn1c(=O)c([N+](=O)[O-])c(N2CCN([C@@H](c3ccccc3)c3ccc(Cl)cc3)CC2)c2nc(C#N)ccc21 [Example 399, 8-{4-[(S)-(4-chlorophenyl)(phenyl)methyl]piperazin-1-yl}-5-methyl-7-nitro-6-oxo-5,6-dihydro-1,5-naphthyridine-2-carbonitrile] was tested. Which EC50 (naïve human CD8 T cells [9]) did it give?
A: 20 nM

Q: And the IC50 (human DGKα [2])?
A: 6400 nM

Q: And the IC50 (human DGKζ [3])?
A: 160 nM

Q: What about the IC50 [7, 17] of the same compound?
A: 410 nM

Q: Which results are given for CCC(c1ccc(F)cc1)N1CCN(c2c([N+](=O)[O-])c(=O)n(C)c3ccc(C#N)nc23)CC1 (racemic) [Example 32, 8-{4-[1-(4-fluorophenyl)propyl]piperazin-1-yl}-5-methyl-7-nitro-6-oxo-5,6-dihydro-1,5-naphthyridine-2-carbonitrile]?
A: IC50 (human DGKα [5]; [12]): 190 nM; EC50 (naïve human CD8 T cells [1]; read-out: CD8 GLO normalized EC50, CellTiter-Glo CD8 T cell proliferation, normalized): 180 nM; IC50 [4, 13]: 360 nM; IC50 (human DGKζ [6]; [16]): 9400 nM

Q: How did the EC50 (naïve human CD8 T cells [9]) turn out when Cn1c(=O)c(C#N)c(N2CCN([C@@H](c3ccccc3)c3ccc(Cl)cc3)CC2)c2nc(Br)ccc21 [Example 428, 6-bromo-4-{4-[(S)-(4-chlorophenyl)(phenyl)methyl]piperazin-1-yl}-1-methyl-2-oxo-1,2-dihydro-1,5-naphthyridine-3-carbonitrile] was run?
A: 30 nM

Q: And the IC50 (human DGKα [2])?
A: 10000 nM

Q: And the IC50 (human DGKζ [3])?
A: 5200 nM

Q: What about the IC50 [7, 17] of the same compound?
A: 590 nM
